target: T1, human parathyroid cell Ca^2+ receptor (hPCaR) (Homo sapiens, UniProt P41180); assay: [Ca2+]i measurement with fluo-3 in HEK 293 4.0-7 cells stably transfected with hPCaR; format: cell-based; conditions: fluo-3 fluorescence (485/530 nm), effect on [Ca^2+]i
T1 construct: expressed in transfected cells
T1 sequence (P41180 20-1078): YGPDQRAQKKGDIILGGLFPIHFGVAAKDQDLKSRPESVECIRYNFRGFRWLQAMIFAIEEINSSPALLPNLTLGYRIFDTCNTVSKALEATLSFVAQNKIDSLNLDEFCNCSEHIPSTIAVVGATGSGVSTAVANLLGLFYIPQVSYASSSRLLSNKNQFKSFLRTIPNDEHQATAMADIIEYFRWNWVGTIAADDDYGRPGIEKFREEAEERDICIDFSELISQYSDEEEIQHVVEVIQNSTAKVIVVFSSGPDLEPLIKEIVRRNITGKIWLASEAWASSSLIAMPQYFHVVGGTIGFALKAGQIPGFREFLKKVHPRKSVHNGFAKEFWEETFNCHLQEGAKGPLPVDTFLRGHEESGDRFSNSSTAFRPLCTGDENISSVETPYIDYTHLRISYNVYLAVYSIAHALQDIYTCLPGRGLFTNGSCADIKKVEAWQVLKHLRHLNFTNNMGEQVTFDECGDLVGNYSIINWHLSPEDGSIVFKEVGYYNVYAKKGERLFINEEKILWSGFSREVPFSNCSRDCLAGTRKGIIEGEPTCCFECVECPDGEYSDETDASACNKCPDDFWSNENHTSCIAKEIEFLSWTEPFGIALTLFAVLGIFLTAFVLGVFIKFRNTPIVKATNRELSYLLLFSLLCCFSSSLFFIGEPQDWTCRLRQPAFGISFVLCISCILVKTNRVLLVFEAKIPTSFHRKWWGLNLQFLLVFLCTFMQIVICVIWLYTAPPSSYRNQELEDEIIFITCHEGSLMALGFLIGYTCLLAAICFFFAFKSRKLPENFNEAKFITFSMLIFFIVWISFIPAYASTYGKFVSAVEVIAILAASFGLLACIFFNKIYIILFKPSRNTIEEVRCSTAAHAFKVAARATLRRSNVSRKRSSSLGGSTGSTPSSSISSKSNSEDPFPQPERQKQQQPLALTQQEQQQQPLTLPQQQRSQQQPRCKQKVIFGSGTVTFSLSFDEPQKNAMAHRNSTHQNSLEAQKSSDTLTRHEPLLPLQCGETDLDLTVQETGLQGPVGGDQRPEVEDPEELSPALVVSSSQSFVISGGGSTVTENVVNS
Procedure: The activities of the compounds of the present invention on calcium receptors were measured. In one embodiment, the measurement was performed in accordance with the method described in Example 4 of Nemeth et al., PCT/US95/13704 (International Publication No. WO96/12697) herein incorporated by reference.
A 4.0-kb NotI-HindIII fragment of the human parathyroid cell Ca^2+ receptor (hPCaR) cDNA was subcloned into the mammalian expression vector pCEP4 (Invitrogen) containing the hygromycin-resistant gene as a selectable marker. This plasmid was transfected into HEK 293 cells by calcium phosphate precipitation. Transfected cells were grown in Dulbecco's modified Eagle's medium containing 10% fetal bovine serum and hygromycin (200 μg/mL). Hygromycin-resistant colonies were subcloned and assayed for hPCaR mRNA by solution hybridization using a ^32P-labeled RNA probe complementary to the (4.0 kb) hPCaR sequence (Garrett, et al., J. Biol. Chem. 270, 12919-12925 (1995)). Clone 7 was used to assess the effects of compounds on [Ca^2+]i. This stably transfected cell line is termed HEK 293 4.0-7. For measurements of [Ca^2+]i, the cells were recovered from tissue culture flasks by brief treatment with 0.02% EDTA and then washed and resuspended in PCB containing 1 mM CaCl2 and 0.1% Bovine Serum Albumin (“BSA”). The cells were loaded with fluo-3 by incubation for 30 min at 37° C., with parathyroid cell buffer (126 mM NaCl, 4 mM KCl, 1 mM MgSO4, 0.7 mM K2HPO/KH2PO4, 20 mM HEPES.NaOH (pH 7.45)) containing 0.5% BSA in lmM CaCl2 and 2 μM fluo-3 acetoxymethyl ester. The cells were subsequently washed, each test compound was added to the cells and the fluorescence was recorded by using excitation and emission wavelengths of 485 and 530 nm, respectively.

EC50, ≤ 10 µM:
COc1ccc(CN[C@H](C)c2ccc(C)cc2)cc1-c1cncnc1 [(1R)-N-((4-(methyloxy)-3-(5-pyrimidinyl)phenyl)methyl)-1-(4-methylphenyl)ethanamine]
COc1cccc([C@@H](C)NCc2cccc(-c3ccc(NC(C)=O)nc3)c2)c1 [N-(5-(3-((((1R)-1-(3-(methyloxy)phenyl)ethyl)amino)methyl)phenyl)-2-pyridinyl)acetamide]
COc1ccc(CN[C@H](C)c2ccccc2)cc1-c1cccnc1F [(1R)-N-((3-(2-fluoro-3-pyridinyl)-4-(methyloxy)phenyl)methyl)-1-phenylethanamine]
COc1ccc(CN[C@H](C)c2ccccc2)cc1-c1cccc(C(F)(F)F)c1 [(1R)-N-((6-(methyloxy)-3′-(trifluoromethyl)-1,1′-biphenyl-3-yl)methyl)-1-phenylethanamine]
COc1cccc([C@@H](C)NCc2ccc(OC)c(-c3ccc(C(F)(F)F)cc3)c2)c1 [(1R)-1-(3-(methyloxy)phenyl)-N-((6-(methyloxy)-4′-(trifluoromethyl)-1,1′-biphenyl-3-yl)methyl)ethanamine]
COc1ccc(CN[C@H](C)c2cccc3ccccc23)cc1N1CCCC1 [(1R)-N-((4-(methyloxy)-3-(1-pyrrolidinyl)phenyl)methyl)-1-(1-naphthalenyl)ethanamine]
COc1cccc([C@@H](C)NCc2ccc(OC)c(-c3ccc(OCC(F)(F)F)nc3)c2)c1 [(1R)-1-(3-(methyloxy)phenyl)-N-((4-(methyloxy)-3-(6-((2,2,2-trifluoroethyl)oxy)-3-pyridinyl)phenyl)methyl)ethanamine]
COc1ccc([C@@H](C)NCc2cccc(-c3ccc(C)nc3)c2)cc1 [(1R)-1-(4-(methyloxy)phenyl)-N-((3-(6-methyl-3-yridinyl)phenyl)methyl)ethanamine]
COc1ccc(CN[C@H](C)c2ccc3ccccc3c2)cc1-c1cncc(C(N)=O)c1 [5-(2-(methyloxy)-5-((((1R)-1-(2-naphthalenyl)ethyl)amino)methyl)phenyl)-3-pyridinecarboxamide]
COc1cccc([C@@H](C)NCc2cccc(-c3cnccn3)c2)c1 [(1R)-1-(3-(methyloxy)phenyl)-N-((3-(2-pyrazinyl)phenyl)methyl)ethanamine]
CC(=O)Nc1cccc(-c2cccc(CN[C@H](C)c3cccc4ccccc34)c2)c1 [N-(3′-((((1R)-1-(1-naphthalenyl)ethyl)amino)methyl)-1,1′-biphenyl-3-yl)acetamide]
COc1ccc(CN[C@H](C)c2cccc3ccccc23)cc1-c1csc(C)n1 [(1R)-N-((4-(methyloxy)-3-(2-methyl-1,3-thiazol-4-yl)phenyl)methyl)-1-(1-naphthalenyl)ethanamine]
COc1ccc(CN[C@H](C)c2ccccc2)cc1-c1ccc2nonc2c1 [(1R)-N-((3-(2,1,3-benzoxadiazol-5-yl)-4-(methyloxy)phenyl)methyl)-1-phenylethanamine]
COc1ccc(CN[C@H](C)c2ccccc2)cc1-c1cccnc1OCC(F)(F)F [(1R)-N-((4-(methyloxy)-3-(2-((2,2,2-trifluoroethyl)oxy)-3-pyridinyl)phenyl)methyl)-1-phenylethanamine]
COc1ccc(CN[C@H](C)c2ccc3ccccc3c2)cc1-c1nccs1 [(1R)-N-((4-(methyloxy)-3-(1,3-thiazol-2-yl)phenyl)methyl)-1-(2-naphthalenyl)ethanamine]
COc1ccc(CN[C@H](C)c2ccccc2)cc1-c1csc2ccccc12 [(1R)-N-((3-(1-benzothien-3-yl)-4-(methyloxy)phenyl)methyl)-1-phenylethanamine]
CC[C@@H](NCc1ccc(OC)c(-c2ccc(OC)cc2)c1)c1ccccc1 [Example 450, (1R)-N-((4′,6-bis(methyloxy)-1,1′-biphenyl-3-yl)methyl)-1-phenyl-1-propanamine]
COc1ccc(CN[C@H](C)c2ccccc2)cc1-c1ccc2c(ccn2CC(N)=O)c1 [2-(5-(2-(methyloxy)-5-((((1R)-1-phenylethyl)amino)methyl)phenyl)-1H-indol-1-yl)acetamide]
C[C@@H](NCc1ccc(I)c(-c2ccc(C(F)(F)F)cc2)c1)c1ccccc1 [(1R)-N-((6-iodo-4′-(trifluoromethyl)-1,1′-biphenyl-3-yl)methyl)-1-phenylethanamine]
COc1ccc(CN[C@H](C)c2ccccc2)cc1-c1cccnc1OCC1CCCO1 (stereo partly drawn) [(1R)-N-((4-(methyloxy)-3-(2-((tetrahydro-2-furanylmethyl)oxy)-3-pyridinyl)phenyl)methyl)-1-phenylethanamine]
CCNC(=O)Nc1ccc(CN[C@H](C)c2ccccc2)cc1-c1ccc(OC)cc1 [N-ethyl-N′-(4′-(methyloxy)-5-((((1R)-1-phenylethyl)amino)methyl)-1,1′-biphenyl-2-yl)urea]
COc1ccc(CN[C@H](C)c2ccccc2)cc1-c1ccc(C(=O)N(C)C)cc1 [N,N-dimethyl-2′-(methyloxy)-5′-((((1R)-1-phenylethyl)amino)methyl)-1,1′-biphenyl-4-carboxamide]
C[C@@H](NCc1ccc(Cl)c(-c2cccnc2)c1)c1ccccc1 [Example 434, (1R)-N-((4-chloro-3-(3-pyridinyl)phenyl)methyl)-1-phenylethanamine]
COc1ccc(CN[C@H](C)c2ccccc2)cc1-c1ccc(OCC2CCCO2)nc1 (stereo partly drawn) [(1R)-N-((4-(methyloxy)-3-(6-((tetrahydro-2-furanylmethyl)oxy)-3-pyridinyl)phenyl)methyl)-1-phenylethanamine]
CCOc1ccc(CN[C@H](C)c2ccccc2)cc1-c1ccc(OC)cc1 [(1R)-N-((6-(ethyloxy)-4′-(methyloxy)-1,1′-biphenyl-3-yl)methyl)-1-phenylethanamine]
C[C@@H](NCc1ccc(F)c(-c2ccc(F)cc2)c1)c1ccccc1 [Example 251, (1R)-N-((4′,6-difluoro-1,1′-biphenyl-3-yl)methyl)-1-phenylethanamine]
COc1ccc(CN[C@H](C)c2ccccc2)cc1-c1nccs1 [(1R)-N-((4-(methyloxy)-3-(1,3-thiazol-2-yl)phenyl)methyl)-1-phenylethanamine]
COc1ccc(CN[C@H](C)c2cccc3ccccc23)cc1-c1nnc(C(F)(F)F)o1 [(1R)-N-((4-(methyloxy)-3-(5-(trifluoromethyl)-1,3,4-oxadiazol-2-yl)phenyl)methyl)-1-(1-naphthalenyl)ethanamine]
COc1cccc([C@@H](C)NCc2ccc(OC)c(-c3nc4ccccc4s3)c2)c1 [(1R)-N-((3-(1,3-benzothiazol-2-yl)-4-(methyloxy)phenyl)methyl)-1-(3-(methyloxy)phenyl)ethanamine]
C[C@@H](NCc1cccc(-c2ccccn2)c1)c1cccc2ccccc12 [(1R)-1-(1-naphthalenyl)-N-((3-(2-pyridinyl)phenyl)methyl)ethanamine]
COCCOc1ccc(CN[C@H](C)c2cccc3ccccc23)cc1-c1ccc(C(F)(F)F)cc1 [(1R)-N-((6-((2-(methyloxy)ethyl)oxy)-4′-(trifluoromethyl)-1,1′-biphenyl-3-yl)methyl)-1-(1-naphthalenyl)ethanamine]
